# Reference: patent publication US20240239782A1, “SULFATE CRYSTALS OF MELANOCORTIN RECEPTOR AGONIST COMPOUND AND METHOD OF PRODUCING SAME” (LG CHEM, LTD., priority 2021, published 2024)
# Experimental: Solubility indicates the result of measurement based on the final volume of water added to a sample when it is visually confirmed that the sample is completely dissolved by adding water to the sample. The solubility of the actual sample may be higher than the measured solubility. Solubility was measured based on the final volume of water added to a sample when it was visually confirmed that the sample was completely dissolved by adding water to the sample.
compound,measurement,value
"CC(C)C(=O)N([C@H]1C[C@@H](C(=O)N2CCOCC2)N(C(=O)[C@@H]2CN(C(C)(C)C)C[C@H]2c2ccc(Cl)cc2)C1)[C@H]1CC[C@@H](C)CC1.O=S(=O)(O)O [Example 2, N-((3S,5S)-1-((3S,4R)-1-(tert-butyl)-4-(4-chlorophenyl)pyrrolidine-3-carbonyl)-5-(morpholine-4-carbonyl)pyrrolidin-3-yl)-N-((1 s,4R)-4-methylcyclohexyl)isobutyramide sulfate]",solubility,more than 56 mg/mL
